Assay results: patent US9580390B2, “Indazole compounds as kinase inhibitors and method of treating cancer with same” (University Health Network, priority 2011, dated 2017)
Where two headings read alike, the source gives them in different places.

Assays:
[1] = system: colon cancer cells (HCT116); test: Cancer cell line growth inhibition (SRB assay); type: cell-based; settings: read-out: Cancer Cell Line GI50 Range HCT116
[2] = system: TICs (Colon 12); test: Colon tumor-initiating cell growth inhibition (Alamar Blue); type: cell-based; settings: 216 h, 9 days, read-out: Tumor Initiating Cell GI50 Range Colon 12
[3] = system: TICs (Ovarian 2393A); test: Ovarian tumor-initiating cell growth inhibition (Alamar Blue); type: cell-based; settings: 144 h; ovarian TICs, 6 days, Alamar Blue; read-out: Tumor Initiating Cell GI50 Range Ovarain 2393A
[4] = system: ovarian cancer cells (PA-1); test: Cancer cell line growth inhibition (SRB assay); type: cell-based; settings: read-out: Cancer Cell Line GI50 Range PA-1
[5] = biological target: T1, human TTK (Homo sapiens, UniProt P33981); test: TTK inhibition assay (indirect ELISA); type: biochemical; settings: read-out: TTK IC50 Range
T1 construct: amino terminal GST fusion of full length human TTK; purchased Invitrogen
T1 sequence (P33981 1-857): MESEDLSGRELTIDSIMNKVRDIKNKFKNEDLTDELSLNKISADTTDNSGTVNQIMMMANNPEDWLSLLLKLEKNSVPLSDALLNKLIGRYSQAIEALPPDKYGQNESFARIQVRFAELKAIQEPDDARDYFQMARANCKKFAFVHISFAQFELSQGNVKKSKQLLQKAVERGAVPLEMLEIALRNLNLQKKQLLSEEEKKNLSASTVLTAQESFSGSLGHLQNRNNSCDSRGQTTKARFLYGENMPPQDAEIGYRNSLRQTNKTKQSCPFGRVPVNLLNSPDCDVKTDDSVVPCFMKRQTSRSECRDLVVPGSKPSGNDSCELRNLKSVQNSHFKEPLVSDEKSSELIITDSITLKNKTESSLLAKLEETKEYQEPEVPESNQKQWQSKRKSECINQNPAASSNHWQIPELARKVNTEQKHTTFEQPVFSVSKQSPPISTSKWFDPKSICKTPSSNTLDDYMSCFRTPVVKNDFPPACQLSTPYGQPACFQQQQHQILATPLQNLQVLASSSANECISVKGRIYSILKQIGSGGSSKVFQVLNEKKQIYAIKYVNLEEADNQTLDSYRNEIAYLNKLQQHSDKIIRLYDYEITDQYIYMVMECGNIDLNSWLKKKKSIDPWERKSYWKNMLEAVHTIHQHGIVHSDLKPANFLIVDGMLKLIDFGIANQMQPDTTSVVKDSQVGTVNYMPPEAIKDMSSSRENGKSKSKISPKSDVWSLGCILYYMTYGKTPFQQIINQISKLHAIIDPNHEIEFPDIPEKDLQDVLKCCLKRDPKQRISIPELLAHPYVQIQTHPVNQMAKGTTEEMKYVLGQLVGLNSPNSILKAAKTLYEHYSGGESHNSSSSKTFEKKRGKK
Procedure: Active TTK was purchased from Invitrogen as an amino terminal GST fusion of full length human TTK. Amino terminal 6 histidine, sumo tagged human TTK (residues 1-275) was expressed in E. coli, and purified to >95% homogeneity by Ni^2+ agarose, gel filtration, and ion exchange chromatography.
TTK activity was measured using an indirect ELISA detection system. GST-TTK (0.68 nM) was incubated in the presence of 16 μM ATP (Sigma cat# A7699), 50 mM Hepes pH 7.2, 1 mM EGTA, 10 mM MgCl2, and 0.1% Pluronic in a 96 well microtitre plate pre-coated with amino terminal 6 histidine, sumo tagged TTK (amino acid residues 1-275). The reaction was allowed to proceed for 30 minutes, followed by 5 washes of the plate with Wash Buffer (phosphate buffered saline supplemented with 0.2% Tween 20), and incubation for 30 minutes with a 1:3000 dilution of primary antibody (Cell Signaling cat# 9381). The plate was washed 5 times with Wash Buffer, incubated for 30 minutes in the presence of secondary antibody coupled to horse radish peroxidase (BioRad cat# 1721019, 1:3000 concentration), washed an additional 5 times with Wash Buffer, and incubated in the presence of TMB substrate (Sigma cat# T0440). The colourimetric reaction was allowed to continue for 5 minutes, followed by addition of stop solution (0.5 N sulphuric acid), and quantified by detection at 450 nm with either a monochromatic or filter based plate reader (Molecular Devices M5 or Beckman DTX880, respectively).
Compounds were pre-incubated in the presence of enzyme for 5 minutes prior to addition of ATP and the activity remaining quantified using the above described activity assay. The % Inhibition of a compound was determined using the following formula: % Inhibition=100×(1−(experimental value−background value)/(high activity control−background value)). The IC50 value was determined using a non-linear 4 point logistic curve fit (XLfit4, IDBS) with the formula: (A+(B/(1+((x/C)^D)))), where A=background value, B=range, C=inflection point, D=curve fit parameter.

[6] = system: Breast cancer cells; test: Cancer cell line growth inhibition (SRB assay); type: cell-based; settings: Homo sapiens; MDA-MB-468; read-out: Cancer Cell Line GI50 Range MDA-MB-468
[7] = Homo sapiens, HCT-116, HCT116 colon cancer cells, SRB assay
[8] = PA-1 ovarian cancer cells, SRB assay

Structure (SMILES) | GI50 [1, 7] [nM] | GI50 ([2]; colon TICs, Alamar Blue) [nM] | GI50 [3] [nM] | GI50 [4, 8] [nM] | IC50 [5] [nM] | GI50 [6] [nM] | GI50 ([1]; Homo sapiens, HCT-116) [nM] | GI50 ([4]; Homo sapiens, PA-1) [nM] | GI50 ([2]; Colon 12 TICs) [nM] | GI50 ([1]; HCT116) [nM] | GI50 ([4]; PA-1) [nM]
O=C(Nc1ccc2[nH]nc(-c3ccc(N4CCOCC4)cc3)c2c1)C(c1ccsc1)N1CCCC1 (stereo not drawn) [Example A4] | < 100 | < 100 | 100 to 500 | – | – | – | – | – | – | – | –
O=C(NC(c1ccccc1)C1CC1)c1ccc2[nH]nc(-c3ccc(N4CCOCC4)cc3)c2c1 (stereo not drawn) [Example A12, N-(cyclopropyl(phenyl)methyl)-3-(4-morpholinophenyl)-1H-indazole-5-carboxamide] | < 100 | > 500 | 100 to 500 | – | – | – | – | – | – | – | –
CO[C@@H](C(=O)Nc1ccc2[nH]nc(-c3ccc(OC4CCN(C)CC4)cc3)c2c1)c1ccccc1 [Example A27, (R)-2-methoxy-N-(3-(4-((1-methylpiperidin-4-yl)oxy)phenyl)-1H-indazol-5-yl)-2-phenylacetamide] | < 100 | 100 to 500 | 100 to 500 | – | – | – | – | – | – | – | –
CN1CCC(Oc2ccc(-c3n[nH]c4ccc(C(=O)NC(c5ccsc5)C5CC5)cc34)cc2)CC1 (stereo not drawn) [Example A33, N-(cyclopropyl(thiophen-3-yl)methyl)-3-(4-((1-methylpiperidin-4-yl)oxy)phenyl)-1H-indazole-5-carboxamide] | < 100 | 100 to 500 | 100 to 500 | – | – | – | – | – | – | – | –
O=C(NC(c1ccsc1)C1CC1)c1ccc2[nH]nc(-c3ccc(N4CCOCC4)cc3)c2c1 (stereo not drawn) [Example A35, N-(cyclopropyl(thiophen-3-yl)methyl)-3-(4-morpholinophenyl)-1H-indazole-5-carboxamide] | < 100 | > 500 | 100 to 500 | – | – | – | – | – | – | – | –
C[C@H]1CCCN1[C@H](C(=O)Nc1ccc2[nH]nc(-c3ccc(OC4CCN(C)CC4)cc3)c2c1)c1ccsc1 [Example A41, (S)-N-(3-(4-((1-methylpiperidin-4-yl)oxy)phenyl)-1H-indazol-5-yl)-2-((S)-2-methylpyrrolidin-1-yl)-2-(thiophen-3-yl)acetamide] | < 100 | 100 to 500 | < 100 | – | – | – | – | – | – | – | –
CCc1cccc(CC)c1NC(=O)Nc1ccc2[nH]nc(-c3ccc(OC4CCN(C)CC4)cc3)c2c1 [Example A46, 1-(2,6-diethylphenyl)-3-(3-(4-((1-methylpiperidin-4-yl)oxy)phenyl)-1H-indazol-5-yl)urea] | < 100 | > 500 | 100 to 500 | – | – | – | – | – | – | – | –
CC1(O)CCN(c2ccc(-c3n[nH]c4ccc(NC(=O)C(c5ccsc5)N5CCCC5)cc34)cc2)CC1 (stereo not drawn) [Example A89, N-(3-(4-(4-hydroxy-4-methylpiperidin-1-yl)phenyl)-1H-indazol-5-yl)-2-(pyrrolidin-1-yl)-2-(thiophen-3-yl)acetamide] | < 100 | 100 to 500 | 100 to 500 | < 100 | – | – | – | – | – | – | –
CN1CCC(Oc2ccc(-c3n[nH]c4ccc(NC(=O)C(c5cccs5)N5CCCC5)cc34)cc2)CC1 (stereo not drawn) [Example A91, N-(3-(4-((1-methylpiperidin-4-yl)oxy)phenyl)-1H-indazol-5-yl)-2-(pyrrolidin-1-yl)-2-(thiophen-2-yl)acetamide] | < 100 | 100 to 500 | < 100 | < 100 | – | – | – | – | – | – | –
COCCN1CCC(Oc2ccc(-c3n[nH]c4ccc(C(=O)NC(c5ccccc5)C5CC5)cc34)cc2)CC1 (stereo not drawn) [Example A98, N-(cyclopropyl(phenyl)methyl)-3-(4-((1-(2-methoxyethyl)piperidin-4-yl)oxy)phenyl)-1H-indazole-5-carboxamide] | < 100 | 100 to 500 | 100 to 500 | < 100 | – | – | – | – | – | – | –
Cc1ccccc1C(NC(=O)c1ccc2[nH]nc(-c3ccc(OC4CCN(C)CC4)cc3)c2c1)C1CC1 (stereo not drawn) [Example A132, N-(cyclopropyl(o-tolyl)methyl)-3-(4-((1-methylpiperidin-4-yl)oxy)phenyl)-1H-indazole-5-carboxamide] | < 100 | < 100 | 100 to 500 | < 100 | – | – | – | – | – | – | –
C[C@@H](NC(=O)c1ccc2[nH]nc(-c3ccc(OC4CCN(C)CC4)cc3)c2c1)c1ccccc1F [Example A134, (R)-N-(1-(2-fluorophenyl)ethyl)-3-(4-((1-methylpiperidin-4-yl)oxy)phenyl)-1H-indazole-5-carboxamide] | < 100 | 100 to 500 | > 500 | 100 to 500 | – | – | – | – | – | – | –
CC(C)C(NC(=O)c1ccc2[nH]nc(-c3ccc(OC4CCN(C)CC4)cc3)c2c1)c1ccccc1Cl (stereo not drawn) [Example A144, N-(1-(2-chlorophenyl)-2-methylpropyl)-3-(4-((1-methylpiperidin-4-yl)oxy)phenyl)-1H-indazole-5-carboxamide] | < 100 | < 100 | < 100 | < 100 | – | – | – | – | – | – | –
CC(C)[C@H](NC(=O)c1ccc2[nH]nc(-c3ccc(N4CC(N5CCOCC5)C4)cc3)c2c1)c1ccccc1Cl [Example A313, (S)-N-(1-(2-chlorophenyl)-2-methylpropyl)-3-(4-(3-morpholinoazetidin-1-yl)phenyl)-1H-indazole-5-carboxamide] | – | – | – | – | < 100 | < 100 | < 100 | < 100 | < 100 | – | –
O=C(N[C@H](c1ccccn1)C1CCCC1)c1ccc2[nH]nc(-c3ccc(N4CC(N5CCOCC5)C4)cc3)c2c1 [Example A314] | – | – | – | – | < 100 | < 100 | < 100 | < 100 | < 100 | – | –
O=C(N[C@@H](c1ccccn1)C1CCCC1)c1ccc2[nH]nc(-c3ccc(N4C5CCC4CC(O)C5)cc3)c2c1 (stereo partly drawn) [Example A364, N-((R)-cyclopentyl(pyridin-2-yl)methyl)-3-(4-((1R,3R,5S)-3-hydroxy-8-azabicyclo[3.2.1]octan-8-yl)phenyl)-1H-indazole-5-carboxamide] | – | – | – | – | < 100 | < 100 | < 100 | < 100 | < 100 | – | –
O=C(N[C@@H](c1ncccn1)C1CCCC1)c1ccc2[nH]nc(-c3ccc(N4C5CCC4CC(O)C5)cc3)c2c1 (stereo partly drawn) [Example A366, N-((R)-cyclopentyl(pyrimidin-2-yl)methyl)-3-(4-((1R,3R,5S)-3-hydroxy-8-azabicyclo[3.2.1]octan-8-yl)phenyl)-1H-indazole-5-carboxamide] | – | – | – | – | < 100 | < 100 | < 100 | < 100 | < 100 | – | –
O=C(N[C@H](c1ncccn1)C1CCCC1)c1ccc2[nH]nc(-c3ccc(N4C5CCC4CC(O)C5)cc3)c2c1 (stereo partly drawn) [Example A367, N-((S)-cyclopentyl(pyrimidin-2-yl)methyl)-3-(4-((1R,3S,5S)-3-hydroxy-8-azabicyclo[3.2.1]octan-8-yl)phenyl)-1H-indazole-5-carboxamide] | – | – | – | – | < 100 | < 100 | < 100 | < 100 | < 100 | – | –
O=C(N[C@H](c1ccccn1)C1CC1)c1ccc2[nH]nc(-c3ccc(N4[C@@H]5CC[C@H]4COC5)cc3)c2c1 [Example A414, 3-(4-((1R,5S)-3-oxa-8-azabicyclo[3.2.1]octan-8-yl)phenyl)-N-((S)-cyclopropyl(pyridin-2-yl)methyl)-1H-indazole-5-carboxamide] | – | – | – | – | < 100 | < 100 | < 100 | < 100 | < 100 | – | –
O=C(NCC1(N2CCOCC2)CCCCC1)c1ccc2[nH]nc(-c3ccc(N4[C@@H]5CC[C@H]4COC5)cc3)c2c1 [Example A501, 3-(4-((1R,5S)-3-oxa-8-azabicyclo[3.2.1]octan-8-yl)phenyl)-N-((1-morpholinocyclohexyl)methyl)-1H-indazole-5-carboxamide] | – | – | – | – | < 100 | < 100 | < 100 | < 100 | < 100 | – | –
O=C(N[C@@H](c1ccccn1)C1CC1)c1ccc2[nH]nc(-c3ccc(N4C5CCC4CC(O)C5)cc3)c2c1 (stereo partly drawn) [Example A512] | – | – | – | – | < 100 | 100 to 500 | – | – | – | < 100 | < 100
